Test results published in US20230181536A1, “ANTICANCER COMBINATION THERAPY WITH N-(1-ACRYLOYL-AZETIDIN-3-YL)-2-((1H-INDAZOL-3-YL)AMINO)METHYL)-1H-IMIDAZOLE-5-CARBOXAMIDE INHIBITOR OF KRAS-G12C” (TAIHO PHARMACEUTICAL CO., LTD., priority 2020, published 2023).

Columns and labels:
[1] = target: G12C mutant of inactive KRAS (GDP) (Homo sapiens, UniProt P01116, G12C); settings: WO 2014/152588 and Cancer Discov. 6 (3), 316-29, 2016; cited from earlier work
[2] = test system: cancer cells with KRAS G12C mutation; settings: WO 2014/152588 and Cancer Discov. 6 (3), 316-29, 2016; cited from earlier work
[3] = test system: tumor-bearing mice expressing KRAS G12C mutation; settings: WO 2015/054572 and Cell. 172 (3), 578-89, 2018; cited from earlier work
[4] = test system: NCI-H358 cells; experiment: Growth inhibition activity on KRAS-G12C mutant cell line (NCI-H358) (in vitro); type: cell-based; settings: Homo sapiens, 72 h, 3-day culture in the presence of the compound, CellTiter-Glo2.0
Procedure: Test Example 3: A Measurement Test of Growth Inhibition Activity on KRAS-G12C Mutant Cell Line (NCI-H358) (In Vitro) NCI-H358 cells (ATCC, Cat#: CRL-5807), which are a KRAS-G12C mutant human lung cancer cell line, were suspended in a 10% fetal bovine serum-containing RPMI1640 medium (manufactured by Fujifilm Wako Pure Chemical Corporation.). The cell suspension was seeded into each well of a 384-well flat-bottom microplate and cultured in an incubator containing 5% CO2 gas at 37° C. for 1 day. The test compound was dissolved in DMSO and diluted with DMSO to give a concentration 500 times the final concentration. The solution of the test compound in DMSO was diluted with the medium used for suspending cells and added to each well of the cell-culture plate to give a DMSO final concentration of 0.2%, followed by culture in an incubator containing 5% CO2 gas at 37° C. for another 3 days. The cell count after 3-day culture in the presence of the compound was measured using CellTiter-Glo2.0 (manufactured by Promega Corporation) in accordance with the protocol recommended by Promega Corporation. The growth inhibition rate was calculated from the following equation, and the concentration of the test compound at which 50% inhibition was achieved (IC50 (nM)) was determined. […] Growth Inhibition Rate (%)=(C−T)/(C)×100 T: the emission intensity in a well into which a test compound was added. C: the emission intensity in a well into which a test compound was not added.

[5] = target: T1, KRAS G12C (Homo sapiens, UniProt P01116, G12C); experiment: Inhibitory activity on the KRAS G12C nucleotide (GDP-GTP) exchange reaction; type: biochemical; settings: Bodipy FL GDP-bound KRAS G12C 25 nM; preincubation at 25° C. for 4 hours; SOS1 100 nM, GppNHp 1 μM, reaction for 30 minutes
T1 construct: KRAS G12C (amino acid region: 1-169)
In short: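 Bodipy FL-GDP-loaded KRAS G12C (aa 1-169, 25 nM) preincubated with compound 4 h at 25 °C in pH 7.5 Tris buffer, 5% DMSO; exchange started with SOS1 (aa 564-1049, 100 nM) and 1 μM GppNHp for 30 min. Fluorescence change (ex 485/em 520 nm) normalized to DMSO and no-GppNHp controls; IC50 calculated.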

[6] = target: T2, G12C K-Ras4B (1-169) (Homo sapiens, UniProt P01116, G12C); experiment: Test of compounds to determine whether they bind to KRASG12C (LC-MS compound binding rate); settings: final compound concentration of 2 μM, 1 μM protein, 25° C. for 2 hours
T2 construct: G12C K-Ras4B (1-169)
Procedure: Test Example 1: A Test of Compounds to Determine Whether they Bind to KRASG12C
Test compounds were prepared in the form of a 10 mM DMSO solution.
Wt K-Ras4B (1-169) and G12C K-Ras4B (1-169) proteins were mixed and diluted with a buffer (1×TBS, 0.1 mM TCEP) to prepare individual 1 μM protein solutions. A 10 mM test compound was diluted tenfold with DMSO to make a 1 mM solution, and then diluted fivefold with DMSO to make a 200 μM solution. The 200 μM solution was further diluted fivefold to make a 40 μM solution. When the final compound concentration was […], 1 μL of a 200 μM test compound was added to 19 μL of a 1 μM protein solution. When the final compound concentration was 2 μM, 1 μL of a 40 μM test compound was added to 19 μL of a 1 μM protein solution. The mixtures were stored in an incubator at 25° C. for 2 hours, and 80 μL of a 1×TBS solution containing 0.2% formic acid was added thereto to end the reaction, followed by LC-MS measurement. LC-MS measurement was performed using Xevo G2-S Q-Tof manufactured by Waters, and reverse-phase chromatography was performed with a desalting column. A mass spectrum of positive ions was obtained by electrospray. For a mass spectrum, a spectrum of a polyvalent ion was collectively converted to a molecular weight by using OpenLynx software by the MaxEnt technique, and a compound binding rate was obtained from the ratio of a signal intensity that corresponds to the molecular weight of a protein to a signal intensity that corresponds to the molecular weight of a compound binding to the protein.
By obtaining the compound binding rate for wt K-Ras4B (1-169) and the compound binding rate for G12C K-Ras4B (1-169) at the same time, information of the selectivity for G12C K-Ras4B (1-169) was obtained at the same time.
The test compounds were measured at their final compound concentration of 2 μM. […] Almost none of the compounds of the disclosure bound to wt K-Ras4B (1-169). The “binding rate” (%) for each of wt K-Ras4B (1-169) and G12C K-Ras4B (1-169) refers to the ratio of the signal intensity of bound forms to the sum of the signal intensity of non-bound forms and the signal intensity of bound forms.

Row | SMILES | IC50 [4] [nM] | IC50 [5] [nM] | further results
1 | C=CC(=O)N1CC(N2CCN(C(=O)CNc3cc(C4(C)CC4)c(Cl)cc3O)CC2)C1 [ARS-853] |  |  | binding to KRAS G12C [1]: binds to the cysteine of the G12C mutant of inactive KRAS (GDP); apoptosis induction [2]: inducing apoptosis
2 | C=CC(=O)N1CCN(c2ncnc3c(F)c(-c4c(O)cccc4F)c(Cl)cc23)CC1 [ARS-1620] |  |  | antitumor action [3]: exerts antitumor action
3 | C=CC(=O)N1CC(NC(=O)c2c(Cl)nc(CNc3n[nH]c4cc(Cl)c(C(C)(C)C)cc34)n2[C@H]2CCN(CC(F)F)C2)C1 [Example 115, (S)-N-(1-acryloylazetidin-3-yl)-2-(((5-(tert-butyl)-6-chloro-1H-indazol-3-yl)amino)methyl)-4-chloro-1-(1-(2,2-difluoroethyl)pyrrolidin-3-yl)-1H-imidazole-5-carboxamide] | 56 | 7 | 
4 | C=CC(=O)N1CC(NC(=O)c2cnc(CNc3n[nH]c4cc(Cl)c(Br)cc34)n2C)C1 [Reference Example 1, N-(1-acryloylazetidin-3-yl)-2-(((5-bromo-6-chloro-1H-indazol-3-yl)amino)methyl)-1-methyl-1H-imidazole-5-carboxamide, reference compound] | > 10000 | > 10000 | binding rate for G12C K-Ras4B (1-169) [6]: E (a binding rate of less than 20% is rated “E.”)
